Measured values reported in ChEMBL document CHEMBL5052849, “Compositions and methods for measuring and inhibiting calpain-5 activity” (2021).
Non-standard residues stand in square brackets, D forms with d. Residues, ends and D or L forms follow the SMILES beside them. Nle = CCCC[C@H](N)C(=O)O

Experiments:
Design in all cases: species or system Homo sapiens
[1] = Inhibition of wild-type CAPN5 (unknown origin)
[2] = Inhibition of CAPN5 R243L mutant (unknown origin)
[3] = Inhibition of CAPN5 G267S mutant (unknown origin) using DABCYL-TPLKSPPPSPR-EDANS as substrate incubated for 30 mins and measured by High-throughput FRET-based assay

Row | SMILES | IC50 [1] | IC50 [2] | IC50 [3] | IC50 ([2]; read-out: IC50)
1 | CC(=O)N[C@@H](CC(C)C)C(=O)N[C@@H](CC(C)C)C(=O)N[C@H](C=O)CCCNC(=N)N [LEUPEPTIN] | 165 nM | Not Active | – | –
2 | CC[C@H](C)[C@H](NC(=O)[C@H](CCC(=O)O)NC(=O)[C@@H](NC(=O)[C@@H](N)CCCCN)[C@@H](C)CC)C(=O)N[C@H](C(=O)N[C@@H](CCCNC(=N)N)C(=O)N[C@@H](CCCCNC)C(=O)N[C@@H](CCCCN)C(=O)N1CCC[C@H]1C(=O)N[C@H](C(=O)N[C@@H](Cc1ccccc1)C(=O)N[C@@H](CCCCN)C(=O)N[C@@H](CCCCN)C(=O)N[C@@H](C)C(=O)N[C@H](C(=O)N[C@H](C(=O)O)C(C)C)[C@@H](C)O)[C@@H](C)CC)C(C)C (HELM PEPTIDE1{K.I.E.I.V.R.[CNCCCC[C@H](N[*:1])C(=O)[*:2]].K.P.I.F.K.K.A.T.V}$$$$V2.0) | 24000 nM | – | 3.6 nM | 29.5 nM
3 | CCCC[C@@H](C=O)NC(=O)[C@H](CC(C)C)NC(=O)OCc1ccccc1 [CALPEPTIN] | 8.35 nM | Not Active | 1100 nM | –
4 | CCCC[C@@H](C=O)NC(=O)[C@H](CC(C)C)NC(=O)[C@H](CC(C)C)NC(C)=O (Ac-Leu-Leu-[Nle]-aldehyde) | – | – | 136 nM | –
5 | CC[C@H](C)[C@H](NC(=O)[C@H](CCC(=O)O)NC(=O)[C@@H](NC(=O)[C@@H](N)CCCCN)[C@@H](C)CC)C(=O)N[C@H](C(=O)N[C@@H](CCCNC(=N)N)C(=O)N[C@@H](CCCCNC)C(=O)N[C@@H](CCCCNC)C(=O)N1CCC[C@H]1C(=O)N[C@H](C(=O)N[C@@H](Cc1ccccc1)C(=O)N[C@@H](CCCCN)C(=O)N[C@@H](CCCCN)C(=O)N[C@@H](C)C(=O)N[C@H](C(=O)N[C@H](C(=O)O)C(C)C)[C@@H](C)O)[C@@H](C)CC)C(C)C (HELM PEPTIDE1{K.I.E.I.V.R.[CNCCCC[C@H](N[*:1])C(=O)[*:2]].[CNCCCC[C@H](N[*:1])C(=O)[*:2]].P.I.F.K.K.A.T.V}$$$$V2.0) | 496 nM | – | 1200 nM | 126 nM
